Assay results reported in patent US9840493B2, “Modified amino acids comprising tetrazine functional groups, methods of preparation, and methods of their use” (SUTRO BIOPHARMA, INC., priority 2013, dated 2017).
In brackets after ≈: the same amount, converted by molar mass. Where two headings read alike, the source gives them in different places.

Key:
[1] = Solubility in phosphate buffered saline pH 7.4 at room temperature; type: physicochemical; conditions: PBS pH 7.4, room temperature; for solubility: phosphate buffered saline, aqueous buffer, thermodynamic from solid
Procedure: This example describes the solubility of three non-natural amino acids comprising tetrazine functional groups in phosphate buffered saline solution, with a pH of 7.4 (PBS). The example also illustrates and discusses the useful increased solubility of the pyridyl tetrazine amino acids provided herein when compared to a phenyl tetrazine-comprising non-natural amino acid of the art.
A suspension of AB 4091 was formed by adding 1.8 mg of AB 4091 to 5 mL of PBS. The suspension was vortexed for five minutes and sonicated for two minutes. Suspended particles remained. Additional PBS was added to the suspension in small portions, with vortexing, to reach a total volume of 25 mL of PBS. This mixture remained cloudy after shaking overnight at room temperature and turned clear following the addition of 2 mL of PBS with vortexing. Clarity of the solution was determined by visual inspection.
A solution of compound (9) was formed by adding 8.3 mg of compound (9) to 200 μL of PBS to form a homogeneous solution. An additional 11.5 mg of compound (9) was added to this solution, in small portions, over a period of 20 minutes, with vortexing. The solution remained clear after vortexing, with no particulates or cloudiness observed. The maximum solubility of compound (9) was not reached, due to its high solubility and the limited amount of the compound available.
A solution of compound (6) was formed by adding 8.7 mg of compound (6) to 200 μL of PBS to form a homogenous solution. An additional 26.9 mg of compound (6) was added to this solution, in small portions, over a period of 25 minutes, with vortexing. The solution remained clear after vortexing, with no particulates or cloudiness observed. The maximum solubility of compound (6) was not reached, due to its high solubility and the limited amount of the compound available.

tRNA synthetase 2A2 = target: T1, tRNA synthetase 2A2 (Methanocaldococcus jannaschii, UniProt Q57834, D158V/F108W/H70A/I159A/L162V/L65V/Q109S/Y32L); assay: Cell-free GFP (K49TAG) expression assay: incorporation of non-natural amino acid by tRNA synthetase 2A2; type: biochemical, Methanococcus jannaschii; conditions: 4 μM 2A2, compound of formula 9 at 4 mM, 30° C., 12 h, ex 476 nm / em 510 nm
T1 construct: made in house
Procedure: (§1) This example provides two novel tRNA synthetases useful with tetrazine-containing amino acids described herein. These two synthetases, designated “2A2” (SEQ ID NO: 4) and “2A9” (SEQ ID NO: 5) were produced by mutagenesis of wild-type tyrosyl-tRNA synthetase (TyrRS) from Methanococcus jannaschii (SEQ ID NO:3). Mutagenesis was performed by assembling overlapping oligonucleotides encoding the mutations by polymerase chain reaction (PCR). Mutants were screened utilizing the green fluorescent protein expression assay described below.
(§2) The ability of the novel tRNA synthetases to incorporate modified amino acids into a polypeptide was evaluated in cell-free protein synthesis reactions comprising DNA encoding SUPERFOLDER green fluorescent protein (GFP). The codon encoding position 49 of the GFP polypeptide, which normally encodes a lysine residue, was substituted with an amber stop codon (TAG). Full-length GFP is expressed only if the novel tRNA synthetases incorporate s modified amino acid into the polypeptide chain. The level of expression of full-length GFP can be evaluated by measuring fluorescence.
(§3) The GFP DNA containing the TAG stop codon was expressed in cell-free protein synthesis reactions as described in Zawada et al., 2011, Biotechnol. Bioeng. […]

tRNA synthetase 2A9 = target: T2, tRNA synthetase 2A9 (Methanocaldococcus jannaschii, UniProt Q57834, D158G/H70A/L162S/L65V/Q109S/Y32G); assay: Cell-free GFP (K49TAG) expression assay: incorporation of non-natural amino acid by tRNA synthetase 2A9; type: biochemical, Methanococcus jannaschii; conditions: 2-4 μM 2A9, compound of formula 6 at 1 mM, 30° C., 12 h, ex 476 nm / em 510 nm
T2 construct: made in house
Procedure: as §1, §2, §3

[2] = solution remained clear, read-out: final concentration achieved (maximum solubility not reached)

T1 sequence (Q57834 whole entry Y32L/L65V/H70A/F108W/Q109S/D158V/I159A/L162V): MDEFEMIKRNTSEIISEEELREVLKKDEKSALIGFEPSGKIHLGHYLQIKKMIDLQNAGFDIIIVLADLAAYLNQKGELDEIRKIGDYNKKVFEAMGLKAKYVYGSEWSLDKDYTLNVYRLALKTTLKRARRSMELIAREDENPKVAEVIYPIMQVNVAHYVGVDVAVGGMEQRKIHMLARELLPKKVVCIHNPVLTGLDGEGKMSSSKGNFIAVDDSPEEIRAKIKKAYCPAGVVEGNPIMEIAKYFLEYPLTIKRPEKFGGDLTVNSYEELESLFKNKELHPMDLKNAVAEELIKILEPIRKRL
T2 sequence (Q57834 whole entry Y32G/L65V/H70A/Q109S/D158G/L162S): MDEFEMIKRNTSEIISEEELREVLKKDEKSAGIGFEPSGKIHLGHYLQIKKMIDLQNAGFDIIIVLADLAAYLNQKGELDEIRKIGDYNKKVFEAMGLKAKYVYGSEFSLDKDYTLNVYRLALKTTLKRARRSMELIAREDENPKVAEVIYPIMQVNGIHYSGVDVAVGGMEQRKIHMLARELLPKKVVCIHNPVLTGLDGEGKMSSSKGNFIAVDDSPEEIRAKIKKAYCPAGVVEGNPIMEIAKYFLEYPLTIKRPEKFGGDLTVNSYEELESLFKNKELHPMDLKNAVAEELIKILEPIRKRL

| SMILES | solubility relative to the solubility of AB 4091 [1] | solubility [1, 2] | GFP fluorescence compared with native GFP positive control (tRNA synthetase 2A2) | GFP fluorescence compared with native GFP positive control (tRNA synthetase 2A9) | solubility ([1]; clarity by visual inspection, read-out: solubility) |
| --- | --- | --- | --- | --- | --- |
| Cc1nnc(NCc2ccc(C[C@H](N)C(=O)O)nc2)nn1 [compound (9)] | over 1600 fold | ≥ 342 mM | approximately equivalent to that of native GFP |  |  |
| Cc1nnc(Nc2ccc(C[C@H](N)C(=O)O)cn2)nn1 [compound (6)] | over 3000 fold | ≥ 647 mM |  | approaches that of native GFP |  |
| Cc1nnc(Nc2ccc(CC(N)C(=O)O)cc2)nn1 (stereo not shown) [AB 4091, reference compound] |  |  |  |  | ~0.215 mM (≈ 0.059 mg/mL) |
